# Tests used:
# [1] = Human plasma incubation, HPLC analysis of degradation products; assay type: in vitro ADME; settings: 20 μM in human plasma, 37° C., 2 hours
# Method: The compounds of formula I were incubated in human plasma at 37° C. for 2 hours, and then the mixtures were treated with acetonitrile to remove protein and the resulting supernatants were analyzed by HPLC (FIG. 2). […] Without wishing to be bound by a particular theory, it is believed that, although not detected due to instability in a protein-free environment, the direct hydrolysis product of a compound of formula I, 4,9-dihydroxy-naphtho[2,3-b]furan, and its partially oxidized product semihydroquinone (shown in scheme 6) co-exist in vivo and play important biological roles.
# HPLC column: Waters Sunfire C18, 250×4.60 mm 5 micron; Mobile phase: buffer A, 90% 5 mM potassium phosphate buffer, pH 6.8, 10% acetonitrile; buffer B, 15% 5 mM potassium phosphate buffer, pH 6.8, 85% acetonitrile; Detector: Waters 2998 Photodiode Array Detector.
# Gradient B: 0-3 min, 50% buffer B, 3-5 min, 50%-100% buffer B, 5-18 min, 100% buffer B, 18-22 min, 100%-50% buffer B, 22-25 min, […]; flow rate, 1 ml/min. Analysis of the 4,9-dihydroxy-naphtho[2,3-b]furan compounds (FIG. 1)
# 10 mM of a compound of formula I or its analog in DMSO (however, compound VI was in DMF) was diluted with human plasma to 20 μM, and the resulting mixtures were incubated at 37° C. for 2 hours. To plasma sample, 9 times volume of acetonitrile was added. The resulting mixtures were vortexed and incubated in dry ice for 30 minutes or in −20° C. freezer for 3 hours, then centrifuged, and supernatant was used for HPLC analysis using gradient B.
# Panc-1 [2] = experiment: Cell viability determination (MTT), Panc-1; assay type: cell-based; settings: Homo sapiens, Panc-1, pancreatic cancer, 48 hour incubation, read-out: Drug concentrations for 50% cell viability (IC50)
# Source text: (§1) Cell Culture: A549, DLD1, SW480, LOVO, HT-29, Hela, U-20S, MES-SA, SK-MEL-28, Panc-1, DU-145, CNE, U251, Eca-109, MGC80-3, QGY-7701, BEL-7404, PLC/PRF/5, Huh-7, and SGC-7901 cells were maintained in Dulbecco's Modified Eagle Medium (DMEM) (imported from Invitrogen, Carlsbad, Calif., USA) supplemented with 10% fetal bovine serum (FBS) (Si Ji Qing, Hangzhou, China) and 1% penicillin/streptomycin/amphotericin B (imported from Invitrogen, Carlsbad, Calif., USA).
# (§2) Cell Viability Determination: Popular MTT method (Archives of Biochemistry and Biophysics, 1993, 303: 474-482) was used to screen the in vitro effects of the invented drugs. Briefly, 5000 to 10000 cells were inoculated per well in a 96-well plate. After overnight incubation, drug was added to the wells at final concentration of 10 μM, […], 2.5 μM, 1.25 μM, or 1 μM, 0.75 μM, 0.5 μM and 0.25 μM in complete culture medium. Each dose level covered 4 equivalent wells. After 48 hour incubation, one tenth volume of 5 mg/mL MTT (thiazolyl blue tetrazolium bromide, Sigma-Aldrich) stock solution was added, and incubation was continued for 2 hours. Then medium was removed and 100 μL of isopropanol solution comprising 86% isopropanol, 4% aqueous 1 N HCl and 10% aqueous SDS solution (10% in concentration) was added. The absorbance of each well at 570 nm wavelength was measured by a micro-plate reader after gentle shaking for 20 minutes. Drug concentrations of 50% cell viability (IC50) were calculated by LOGIT method.
# LOVO = experiment: Cell viability determination (MTT), LOVO; assay type: cell-based; settings: Homo sapiens, colorectal cancer, 48 hour incubation, read-out: Drug concentrations for 50% cell viability (IC50)
# Source text: as §1, §2
# SW480 = experiment: Cell viability determination (MTT), SW480; assay type: cell-based; settings: Homo sapiens, SW480, colorectal cancer, 48 hour incubation, read-out: Drug concentrations for 50% cell viability (IC50)
# Source text: as §1, §2
# DLD1 [3] = experiment: Cell viability determination (MTT), DLD1; assay type: cell-based; settings: Homo sapiens, DLD-1, DLD1, colorectal cancer, 48 hour incubation, read-out: Drug concentrations for 50% cell viability (IC50)
# Source text: as §1, §2
# Eca-109 = experiment: Cell viability determination (MTT), Eca-109; assay type: cell-based; settings: Homo sapiens, Eca-109, esophageal cancer, 48 hour incubation, read-out: Drug concentrations for 50% cell viability (IC50)
# Source text: as §1, §2
# U-20S = experiment: Cell viability determination (MTT), U-20S; assay type: cell-based; settings: osteosarcoma, 48 hour incubation, read-out: Drug concentrations for 50% cell viability (IC50)
# Source text: as §1, §2
# Hela = experiment: Cell viability determination (MTT), Hela; assay type: cell-based; settings: Homo sapiens, cervical cancer, 48 hour incubation, read-out: Drug concentrations for 50% cell viability (IC50)
# Source text: as §1, §2
# MGC80-3 = experiment: Cell viability determination (MTT), MGC80-3; assay type: cell-based; settings: Homo sapiens, MGC-803, MGC80-3, stomach cancer, 48 hour incubation, read-out: Drug concentrations for 50% cell viability (IC50)
# Source text: as §1, §2
# [4] = Metabolism in biological fluid (human whole blood, cancer cell lysate, liver microsomes, mouse oral uptake), HPLC; assay type: in vitro ADME; settings: liver microsomes or mouse oral uptake system, 20 μM, 37° C.
# Method: Second, a major metabolite found after incubation of compound I, III, IV, VI or XIII in biological fluid, such as human whole blood, or cancer cell lysate, or liver microsomes, or mouse oral uptake system, is compound XII (FIG. 3). Similarly, a major metabolite found after incubation of compound V, VII or XIV in biological fluid is 2-(1-hydroxy-n-propyl)-naphtho[2,3-b]furan-4,9-dione (data not shown). Reduction of the position 2 substituent carbonyl group is part of quinone redox reaction as evidenced by the β-lapachone effect on the formation of compound XII in the compound XIII incubation mixture of human whole blood (part D of FIG. 3). The possible reaction mechanism is proposed as shown in scheme 7, in which the two electron reduction could be NQ01 catalyzed reduction or two successive cytochrome b5 reductase or p450 reductase catalyzed reaction. As substrate of these enzymes, β-lapachone could compete for the two electron or single electron reaction and thus reduced formation of the metabolism product.
# Crystalline or amorphous solid of compound was mixed with excipient and suspended in 0.5% carboxymethylcellulose (CMC) solution in a mortar. Then the mixture was orally administered into ICR mouse at the predetermined dosage. At the predetermined time point, blood was drawn from the mouse and stored in the vial containing heparin. The blood samples were centrifuged at 6,000 rpm for 10 min, and plasmas were separated. To each plasma sample, 9 times volume of acetonitrile/methyl trifluoromethanesulfonate (1000:1) or acetonitrile/concentrated HCl (1000:1) was added. The resulting mixtures were vortexed and incubated in dry ice for 30 minutes or in −20° C. freezer for 3 hours, then centrifuged, and supernatants were separated for HPLC analysis using gradient B.
# The biological systems for in vitro metabolism study include: human whole blood stabilized with sodium citrate; cancer cell lysate (obtained using freeze-thaw method, 10 mg/ml in protein concentration for use); liver microsomes with NADPH generation system (prepared according to the protocol provided by iPhase Pharma, Beijing, China);
# 10 mM of a compound of formula I or its analog or compound XIII in DMSO (however, compound VI was in DMF) was added into the biological system to a final concentration of 20 μM. The mixtures were incubated at 37° C. for predetermined time. To each sample, then 9 times volume of acetonitrile was added. The resulting mixtures were vortexed and incubated in dry ice for 30 minutes or in −20° C. freezer for 3 hours, then centrifuged, and supernatants were separated for HPLC analysis using gradient B.
# A549 = experiment: Cell viability determination (MTT), A549; assay type: cell-based; settings: Homo sapiens, A549, lung cancer, 48 hour incubation, read-out: Drug concentrations for 50% cell viability (IC50)
# Source text: as §1, §2
# DU-145 = experiment: Cell viability determination (MTT), DU-145; assay type: cell-based; settings: Homo sapiens, DU-145, prostate cancer, 48 hour incubation, read-out: Drug concentrations for 50% cell viability (IC50)
# Source text: as §1, §2
# SK-MEL-28 = experiment: Cell viability determination (MTT), SK-MEL-28; assay type: cell-based; settings: Homo sapiens, SK-MEL-28, malignant melanoma, 48 hour incubation, read-out: Drug concentrations for 50% cell viability (IC50)
# Source text: as §1, §2
# MES-SA = experiment: Cell viability determination (MTT), MES-SA; assay type: cell-based; settings: Homo sapiens, leiomyosarcoma, 48 hour incubation, read-out: Drug concentrations for 50% cell viability (IC50)
# Source text: as §1, §2
# QGY-7701 = experiment: Cell viability determination (MTT), QGY-7701; assay type: cell-based; settings: QGY7701, QGY-7701, liver cancer, 48 hour incubation, read-out: Drug concentrations for 50% cell viability (IC50)
# Source text: as §1, §2
# U251 = experiment: Cell viability determination (MTT), U251; assay type: cell-based; settings: Homo sapiens, U-251, U251, glioma, 48 hour incubation, read-out: Drug concentrations for 50% cell viability (IC50)
# Source text: as §1, §2
# CNE = experiment: Cell viability determination (MTT), CNE; assay type: cell-based; settings: Homo sapiens, nasopharyngeal cancer, 48 hour incubation, read-out: Drug concentrations for 50% cell viability (IC50)
# Source text: as §1, §2
# DLD1 [5] = experiment: Effect of NQ01 inhibitor (dicumarol) on biological activity, MTT, DLD1; assay type: cell-based; settings: DLD1 (significant NQ01 enzymatic activity); dicumarol 40 μM; 48 hr
# Method: as §2
# (§3) Effect of NQ01 Inhibitor (Dicumarol) on the Biological Activities of 2-acetyl-4,9-diacetoxy-naphtho[2,3-b]furan and Compound XIII (Part B and C of FIG. 4):MTT assay was used for this experiment. Same procedure as described in “Cell Viability Determination” section. […] The viability of cells at each well was read out after 48 hr incubation in cell culture incubator.
# Panc-1 [6] = experiment: Effect of NQ01 inhibitor (dicumarol) on biological activity, MTT, Panc-1; assay type: cell-based; settings: Panc-1 (no significant NQ01 enzymatic activity); dicumarol 40 μM; 48 hr
# Method: as §2, §3
SMILES,Degradation / detectable products after incubation in human plasma [1],IC50 (Panc-1 [2]),IC50 (LOVO),IC50 (SW480),IC50 (DLD1 [3]),IC50 (Eca-109),IC50 (U-20S),IC50 (Hela),IC50 (MGC80-3),Major metabolite found after incubation in biological fluid [4],IC50 (A549),IC50 (DU-145),IC50 (SK-MEL-28),IC50 (MES-SA),IC50 (QGY-7701),IC50 (U251),IC50 (CNE),Dicumarol effect on anticancer activity (DLD1 [5]),Dicumarol effect on anticancer activity (Panc-1 [6])
"CC(=O)c1cc2c(OC(=O)C(C)(C)C)c3ccccc3c(OC(=O)C(C)(C)C)c2o1 [compound II, 2-acetyl-4,9-Bis(pivaloxy)-naphtho[2,3-b]furan]",barely degraded,3 µM,> 4 µM,> 4 µM,> 4 µM,> 4 µM,–,–,–,–,–,–,–,–,–,–,–,–,–
"CC(=O)c1cc2c(O)c3ccccc3c(OC(=O)CNC(=O)OC(C)(C)C)c2o1 [compound III, 2-acetyl-4-hydroxy-9-[(tert-butoxycarbonyl)amino]acetoxy-naphtho[2,3-b]furan]",–,1.77 µM,3.1 µM,1.55 µM,1.03 µM,2.55 µM,2.5 to 5 µM,1.25 to 2.5 µM,1.65 µM,compound XII,1.25 to 2.5 µM,1.25 to 2.5 µM,0.89 µM,0.47 µM,4.8 µM,2.07 µM,1.87 µM,–,–
CC(=O)c1cc2c(OC(=O)C(C)C)c3ccccc3c(OC(=O)C(C)C)c2o1 [compound I],the detectable products were compound XIII and partially degraded products,< 2.5 µM,2.8 µM,< 2.5 µM,< 2.5 µM,5.5 µM,5.7 µM,< 2.5 µM,2.5 µM,compound XII,< 2.5 µM,< 2.5 µM,–,< 2.5 µM,2.87 µM,< 2.5 µM,2.5 µM,–,–
"CC(=O)c1cc2c(OC(=O)C(Cl)Cl)c3ccccc3c(OC(=O)C(Cl)Cl)c2o1 [compound VI, 2-acetyl-4,9-Bis(dichloroacetoxy)-naphtho[2,3-b]furan]",–,1 µM,1.5 µM,0.6 µM,0.9 µM,0.8 µM,0.8 µM,0.4 µM,0.6 µM,compound XII,0.4 µM,1 µM,–,0.27 µM,–,0.7 µM,1.1 µM,–,–
"CC(=O)Oc1c2ccccc2c(OC(C)=O)c2oc(C(C)=O)cc12 [2-acetyl-4,9-bis(acetoxy)-naphtho[2,3-b]furan, reference compound]",the only detectable product was compound XIII,1.5 µM,1.1 µM,0.86 µM,1.8 µM,1.4 µM,1 µM,1.2 µM,–,–,1.7 µM,1 µM,0.3 µM,0.6 µM,–,1.08 µM,1.5 µM,dicumarol attenuates anticancer activities,dicumarol showed little effect
